Assay results as given in ChEMBL document CHEMBL1154997, “Inhibitors of dipeptidyl peptidase 8 and dipeptidyl peptidase 9. Part 1: identification of dipeptide derived leads” (Bioorg Med Chem Lett, 2008).

Tests used:
Dipeptidyl peptidase 4 = Dipeptidyl peptidase 4 (Homo sapiens, UniProt P27487)
Dipeptidyl peptidase 2 = Dipeptidyl peptidase 2 (Homo sapiens, UniProt Q9UHL4)
Dipeptidyl peptidase 9 = Dipeptidyl peptidase 9 (Homo sapiens, UniProt Q86TI2)
Dipeptidyl peptidase 8 = Dipeptidyl peptidase 8 (Homo sapiens, UniProt Q6V1X1)
Dipeptidyl peptidase 8, sequence (Q6V1X1 whole entry): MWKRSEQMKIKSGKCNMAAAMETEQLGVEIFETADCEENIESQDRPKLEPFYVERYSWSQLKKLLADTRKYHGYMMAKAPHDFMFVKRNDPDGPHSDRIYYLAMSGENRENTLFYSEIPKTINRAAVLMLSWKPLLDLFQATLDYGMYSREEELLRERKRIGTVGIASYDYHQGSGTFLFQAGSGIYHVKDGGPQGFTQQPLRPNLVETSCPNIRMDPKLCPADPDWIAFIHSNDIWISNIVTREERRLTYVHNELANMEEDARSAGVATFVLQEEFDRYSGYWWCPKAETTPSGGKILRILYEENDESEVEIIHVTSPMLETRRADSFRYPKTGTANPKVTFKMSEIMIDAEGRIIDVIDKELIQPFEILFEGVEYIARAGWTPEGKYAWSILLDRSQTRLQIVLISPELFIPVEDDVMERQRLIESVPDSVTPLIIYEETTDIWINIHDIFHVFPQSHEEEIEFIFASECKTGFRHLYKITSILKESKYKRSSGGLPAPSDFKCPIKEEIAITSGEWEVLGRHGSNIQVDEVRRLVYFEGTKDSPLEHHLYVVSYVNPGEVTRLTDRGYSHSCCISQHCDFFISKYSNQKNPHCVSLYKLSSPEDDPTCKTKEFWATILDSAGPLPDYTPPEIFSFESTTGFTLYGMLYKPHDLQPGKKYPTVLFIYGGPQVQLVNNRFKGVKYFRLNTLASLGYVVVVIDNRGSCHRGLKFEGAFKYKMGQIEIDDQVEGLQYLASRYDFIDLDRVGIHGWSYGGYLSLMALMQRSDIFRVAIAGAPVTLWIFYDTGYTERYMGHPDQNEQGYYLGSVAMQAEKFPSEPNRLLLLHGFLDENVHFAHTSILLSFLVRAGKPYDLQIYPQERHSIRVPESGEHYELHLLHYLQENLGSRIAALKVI

Dipeptidyl peptidase 4, sequence (P27487 whole entry): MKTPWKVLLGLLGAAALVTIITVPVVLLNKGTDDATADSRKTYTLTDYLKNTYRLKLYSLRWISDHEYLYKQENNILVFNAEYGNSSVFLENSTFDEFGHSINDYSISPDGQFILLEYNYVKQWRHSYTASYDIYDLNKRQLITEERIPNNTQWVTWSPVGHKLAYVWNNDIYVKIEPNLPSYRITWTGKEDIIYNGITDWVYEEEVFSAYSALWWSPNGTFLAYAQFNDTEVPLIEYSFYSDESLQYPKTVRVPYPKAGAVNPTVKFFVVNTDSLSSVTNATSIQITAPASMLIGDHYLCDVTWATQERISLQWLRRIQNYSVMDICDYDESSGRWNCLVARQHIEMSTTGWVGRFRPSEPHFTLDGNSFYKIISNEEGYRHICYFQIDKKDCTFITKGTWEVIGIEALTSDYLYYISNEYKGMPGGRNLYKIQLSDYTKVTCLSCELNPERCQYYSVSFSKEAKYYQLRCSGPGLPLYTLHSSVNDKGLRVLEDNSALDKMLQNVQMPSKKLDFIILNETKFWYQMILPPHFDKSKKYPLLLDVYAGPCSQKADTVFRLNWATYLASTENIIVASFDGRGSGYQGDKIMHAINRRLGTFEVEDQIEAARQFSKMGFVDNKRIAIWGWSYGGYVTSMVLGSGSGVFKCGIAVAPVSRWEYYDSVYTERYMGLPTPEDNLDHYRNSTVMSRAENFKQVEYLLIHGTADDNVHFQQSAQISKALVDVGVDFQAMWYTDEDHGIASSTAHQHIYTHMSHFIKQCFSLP
Dipeptidyl peptidase 9, sequence (Q86TI2 whole entry): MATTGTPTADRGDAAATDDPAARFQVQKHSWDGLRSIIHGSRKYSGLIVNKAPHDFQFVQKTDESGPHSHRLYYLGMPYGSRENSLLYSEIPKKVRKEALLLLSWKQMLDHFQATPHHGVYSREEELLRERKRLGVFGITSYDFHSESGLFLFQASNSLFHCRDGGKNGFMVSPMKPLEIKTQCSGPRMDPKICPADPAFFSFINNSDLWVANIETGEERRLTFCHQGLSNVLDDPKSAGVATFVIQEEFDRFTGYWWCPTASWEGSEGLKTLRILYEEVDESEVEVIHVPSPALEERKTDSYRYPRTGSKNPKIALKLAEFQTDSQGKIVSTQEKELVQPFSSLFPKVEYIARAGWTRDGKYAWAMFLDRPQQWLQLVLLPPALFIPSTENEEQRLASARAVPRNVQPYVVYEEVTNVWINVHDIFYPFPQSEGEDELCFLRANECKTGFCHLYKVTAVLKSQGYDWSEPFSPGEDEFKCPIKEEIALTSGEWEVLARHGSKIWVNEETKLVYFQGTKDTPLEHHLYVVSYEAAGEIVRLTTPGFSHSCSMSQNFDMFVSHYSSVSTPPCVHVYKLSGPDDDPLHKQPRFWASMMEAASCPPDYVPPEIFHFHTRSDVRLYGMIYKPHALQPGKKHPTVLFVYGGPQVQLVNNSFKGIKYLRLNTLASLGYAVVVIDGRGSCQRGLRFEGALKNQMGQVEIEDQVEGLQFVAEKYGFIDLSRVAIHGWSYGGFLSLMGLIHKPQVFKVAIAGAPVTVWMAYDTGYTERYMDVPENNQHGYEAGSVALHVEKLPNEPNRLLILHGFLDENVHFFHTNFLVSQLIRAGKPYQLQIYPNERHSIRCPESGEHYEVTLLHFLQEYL

## N#C[C@@H]1CCCN1C(=O)[C@@H](N)CCCCNC(=O)OCc1ccccc1
Dipeptidyl peptidase 4
  IC50: 0.035 µM
Dipeptidyl peptidase 2
  IC50: 0.84 µM

## NCCCC[C@H](N)C(=O)N1CCCC1
Dipeptidyl peptidase 4
  IC50: 39 µM
Dipeptidyl peptidase 2
  IC50: 9.9 µM

## N[C@@H](CCCCNC(=O)OCc1ccccc1)C(=O)N1CCSC1
Dipeptidyl peptidase 4
  IC50: 3.7 µM
Dipeptidyl peptidase 2
  IC50: 1.02 µM

## CC[C@H](C)[C@H](N)C(=O)N1CC=CCC1
Dipeptidyl peptidase 9
  IC50: > 50 µM
Dipeptidyl peptidase 4
  IC50: 52 µM
Dipeptidyl peptidase 2
  IC50: 52 µM

## CC[C@H](C)[C@H](N)C(=O)N1CCC(F)C1 (stereo partly specified)
Dipeptidyl peptidase 4
  IC50: 3.5 µM
Dipeptidyl peptidase 2
  IC50: 111 µM

## N[C@@H](CCCNC(=O)OCc1ccccc1)C(=O)N1CCCC1
Dipeptidyl peptidase 4
  IC50: 9.7 µM
Dipeptidyl peptidase 2
  IC50: 3.7 µM

## CC(C)[C@H](N)C(=O)N1CCCC1
Dipeptidyl peptidase 2
  IC50: 153 µM

## N[C@@H](Cc1ccccc1)C(=O)N1CCCC1
Dipeptidyl peptidase 8
  IC50: 115 µM
Dipeptidyl peptidase 4
  IC50: 21 µM
Dipeptidyl peptidase 2
  IC50: 79 µM

## CC[C@H](C)[C@H](N)C(=O)N1CCC(Cl)C1 (stereo partly specified)
Dipeptidyl peptidase 4
  IC50: 94 µM
Dipeptidyl peptidase 2
  IC50: 30 µM

## NCCCC[C@H](N)C(=O)N1CCC(O)C1 (stereo partly specified)
Dipeptidyl peptidase 8
  IC50: 139 µM
Dipeptidyl peptidase 4
  IC50: 500 µM
Dipeptidyl peptidase 2
  IC50: 48 µM

## N[C@@H](CO)C(=O)N1CCCC1
Dipeptidyl peptidase 8
  IC50: > 500 µM
Dipeptidyl peptidase 4
  IC50: 190 µM
Dipeptidyl peptidase 2
  IC50: 65 µM

## N#C[C@@H]1C[C@H](N=[N+]=[N-])CN1C(=O)[C@@H](N)CCCCNc1ccc2ccccc2c1
Dipeptidyl peptidase 4
  IC50: 0.56 µM
Dipeptidyl peptidase 2
  IC50: 0.034 µM

## N[C@@H](CCNCc1ccc(Cl)cc1)C(=O)N1CCCCC1
Dipeptidyl peptidase 9
  IC50: 76.6 µM
Dipeptidyl peptidase 2
  IC50: < 0.0005 µM
  Ki: 0.082 nM

## N[C@@H](Cc1c[nH]c2ccccc12)C(=O)N1CCCC1
Dipeptidyl peptidase 9
  IC50: > 100 µM
Dipeptidyl peptidase 8
  IC50: 242 µM
Dipeptidyl peptidase 4
  IC50: 286 µM
Dipeptidyl peptidase 2
  IC50: 49 µM

## CC[C@H](C)[C@H](N)C(=O)N1CCCCC1
Dipeptidyl peptidase 4
  IC50: 67 µM
Dipeptidyl peptidase 2
  IC50: 59 µM

## CC[C@H](C)[C@H](N)C(=O)N1CCC(O)C1 (stereo partly specified)
Dipeptidyl peptidase 9
  IC50: > 100 µM
Dipeptidyl peptidase 8
  IC50: 130 µM
Dipeptidyl peptidase 4
  IC50: 93 µM
Dipeptidyl peptidase 2
  IC50: 299 µM

## N=C(NCCC[C@H](NC(=O)OCc1ccccc1)C(=O)N1CCCC1)NC(=O)OCc1ccccc1
Dipeptidyl peptidase 4
  IC50: 16.8 µM
Dipeptidyl peptidase 2
  IC50: 0.86 µM

## CC[C@H](C)[C@H](N)C(=O)NC1CCCC1
Dipeptidyl peptidase 9
  IC50: > 100 µM
Dipeptidyl peptidase 8
  IC50: > 1000 µM
Dipeptidyl peptidase 4
  IC50: > 1000 µM
Dipeptidyl peptidase 2
  IC50: > 100 µM

## C[C@@H](O)[C@H](N)C(=O)N1CCCC1
Dipeptidyl peptidase 4
  IC50: 98 µM
Dipeptidyl peptidase 2
  IC50: 230 µM

## N#C[C@@H]1C[C@H](N=[N+]=[N-])CN1C(=O)[C@@H](N)CCCCN
Dipeptidyl peptidase 4
  IC50: 2.2 µM
Dipeptidyl peptidase 2
  IC50: 0.31 µM

## N#C[C@@H]1CCCCN1C(=O)[C@@H](N)CCCCN
Dipeptidyl peptidase 4
  IC50: 51 µM
Dipeptidyl peptidase 2
  IC50: 1.5 µM

## CCCC[C@H](N)C(=O)N1CCCC1
Dipeptidyl peptidase 4
  IC50: 15 µM
Dipeptidyl peptidase 2
  IC50: 60 µM

## CC(C)C[C@H](N)C(=O)N1CCCC1
Dipeptidyl peptidase 4
  IC50: 24 µM
Dipeptidyl peptidase 2
  IC50: 122 µM

## NCCC[C@H](N)C(=O)N1CCCC1
Dipeptidyl peptidase 4
  IC50: 118 µM
Dipeptidyl peptidase 2
  IC50: 9.8 µM

## N#C[C@@H]1C[C@H](N=[N+]=[N-])CN1C(=O)[C@@H](N)CCCCN(c1cccc2ccccc12)c1cccc2ccccc12
Dipeptidyl peptidase 4
  IC50: 2.5 µM
Dipeptidyl peptidase 2
  IC50: 0.025 µM

## NCC(=O)N1CCCC1
Dipeptidyl peptidase 9
  IC50: > 1000 µM
Dipeptidyl peptidase 8
  IC50: > 1000 µM

## N[C@@H](CC(=O)O)C(=O)N1CCCC1
Dipeptidyl peptidase 8
  IC50: > 1000 µM

## NCCCC[C@H](N)C(=O)N1CCCc2ccccc21
Dipeptidyl peptidase 9
  IC50: > 100 µM
Dipeptidyl peptidase 8
  IC50: 312 µM
Dipeptidyl peptidase 4
  IC50: > 1000 µM
Dipeptidyl peptidase 2
  IC50: 393 µM

## CC[C@H](C)[C@H](N)C(=O)N1CCC1
Dipeptidyl peptidase 9
  IC50: > 100 µM
Dipeptidyl peptidase 8
  IC50: 127 µM
Dipeptidyl peptidase 4
  IC50: 50.4 µM
Dipeptidyl peptidase 2
  IC50: 730 µM

## N[C@@H](CS)C(=O)N1CCCC1
Dipeptidyl peptidase 4
  IC50: 37 µM
Dipeptidyl peptidase 2
  IC50: 19 µM

## N[C@@H](CCCCNC(=O)OCc1ccccc1)C(=O)N1CCCC1
Dipeptidyl peptidase 4
  IC50: 15.6 µM
Dipeptidyl peptidase 2
  IC50: 5.7 µM

## NCCCC[C@H](N)C(=O)N1CCSC1
Dipeptidyl peptidase 4
  IC50: 23 µM
Dipeptidyl peptidase 2
  IC50: 2.9 µM

## N[C@@H](Cc1ccc(O)cc1)C(=O)N1CCCC1
Dipeptidyl peptidase 4
  IC50: 43.5 µM
Dipeptidyl peptidase 2
  IC50: 15.7 µM

## [N-]=[N+]=NC1CCN(C(=O)[C@@H](N)CCCCN)C1 (stereo partly specified)
Dipeptidyl peptidase 2
  IC50: 4.9 µM

## N#C[C@@H]1C[C@H](N=[N+]=[N-])CN1C(=O)[C@@H](N)CCCCN(c1ccc2ccccc2c1)c1ccc2ccccc2c1
Dipeptidyl peptidase 2
  IC50: 0.068 µM

## CC[C@H](C)[C@H](N)C(=O)N1CCCCCC1
Dipeptidyl peptidase 9
  IC50: > 100 µM
Dipeptidyl peptidase 8
  IC50: 612 µM
Dipeptidyl peptidase 4
  IC50: 374 µM
Dipeptidyl peptidase 2
  IC50: 228 µM

## N=C(N)NCCC[C@H](N)C(=O)N1CCCC1
Dipeptidyl peptidase 4
  IC50: 12.7 µM
Dipeptidyl peptidase 2
  IC50: 3.1 µM

## N#C[C@@H]1CCCN1C(=O)[C@@H](N)CCCCN
Dipeptidyl peptidase 2
  IC50: 0.577 µM

## CC[C@H](C)[C@H](N)C(=O)N1CCC(N=[N+]=[N-])C1 (stereo partly specified)
Dipeptidyl peptidase 4
  IC50: 107 µM
Dipeptidyl peptidase 2
  IC50: 43 µM

## C[C@H](N)C(=O)N1CCCC1
Dipeptidyl peptidase 8
  IC50: 411 µM

## CC(C)[C@H](N)C(=O)N1CSC[C@H]1B(O)O
Dipeptidyl peptidase 2
  IC50: 0.086 µM

## N[C@@H](CCC(=O)O)C(=O)N1CCCC1
Dipeptidyl peptidase 9
  IC50: > 100 µM
Dipeptidyl peptidase 8
  IC50: > 1000 µM
Dipeptidyl peptidase 4
  IC50: > 1000 µM
Dipeptidyl peptidase 2
  IC50: > 1000 µM

## N#C[C@@H]1C[C@H](N=[N+]=[N-])CN1C(=O)[C@@H](N)CCCCNC(=O)OCc1ccccc1
Dipeptidyl peptidase 4
  IC50: 0.53 µM
Dipeptidyl peptidase 2
  IC50: 0.35 µM

## N[C@@H](Cc1c[nH]cn1)C(=O)N1CCCC1
Dipeptidyl peptidase 9
  IC50: > 100 µM
Dipeptidyl peptidase 8
  IC50: > 500 µM
Dipeptidyl peptidase 4
  IC50: 23.1 µM
Dipeptidyl peptidase 2
  IC50: 1.2 µM

## NC(=O)C[C@H](N)C(=O)N1CCCC1
Dipeptidyl peptidase 8
  IC50: > 500 µM
Dipeptidyl peptidase 4
  IC50: 188 µM
Dipeptidyl peptidase 2
  IC50: 152 µM

## N[C@@H](CCCCNC(=O)OCc1ccccc1)C(=O)N1CCCc2ccccc21
Dipeptidyl peptidase 9
  IC50: > 100 µM
Dipeptidyl peptidase 8
  IC50: > 500 µM
Dipeptidyl peptidase 4
  IC50: > 1000 µM
Dipeptidyl peptidase 2
  IC50: 390 µM

## CC[C@H](C)[C@H](N)C(=O)N1CC=CC1
Dipeptidyl peptidase 4
  IC50: 15 µM
Dipeptidyl peptidase 2
  IC50: 288 µM
